Columns and labels:
[1] = system: SRS-A synthesis (Rat Peritoneal Cells); assay: Inhibition of the in vitro synthesis of SRS-A in rat peritoneal cells (ionophore A23187 challenge, guinea pig ileum bioassay); type: cell-based, rat (male Sprague-Dawley); conditions: for inhibition at 10 µM: p values given
From the text: To study the effect of drugs on SRS-A synthesis in rat peritoneal cells, these cells (including mast cells, monocytes, eosinophils and neutrophils)were isolated from male Sprague-Dawley rats (Charles River Laboratories) weighing 180-220 g by the lavage procedure described by Herzig, D. J. and Kusner, E. J., Journal of Pharmacology and Experimental Therapeutics, 194, 457-462 (1975) with the exception that Hanks balanced salt solution used in these experiments was adjusted to pH 6.9 with 5% (V/V) of 0.1M aqueous phosphate buffer and contained 50 m/gml sodium heparin. After removal from the peritoneal cavity of rats, the cells were subsequently isolated by centrifugation at 400×gravity for 10 minutes at 4° C. and resuspended to a concentration of about 2,000,000 cells per ml in Hanks buffer.
Samples for evaluation were prepared by adding various concentrations of test drugs to 2 ml aliquots of the resuspended cells in Hanks buffer. The 2 ml samples used for control contained 2 ml aliquots of resuspended cells in Hanks buffer without drugs. All of the above samples (2 ml final volume) were preincubated at 37° C. for 10 minutes in the presence of varying concentrations of test drug prior to challenge with 5×10^-7 M ionophore […]. This ionophore is disclosed in Burka and Flower, Br. J. Pharmacology 65: 35-41 (1979). Antibiotic A23187 was used as a probe for the study of calcium and magnesium function in biological systems. After ionophore challenge, SRS-A was synthesized in the samples by the cells for 10 minutes (at 37° C.) after which this synthesis was terminated by placing the samples in a boiling water bath for 10 minutes followed by centrifugation at 2,000×g (10 minutes) at 4° C. to remove coagulated protein and cellular debris. The SRS-A present in the resulting supernatants was quantitated by a bioassay using a guinea pig ileum as described in Orange, and Austen, Adv. Immunol. 10: 105-144 144 (1969). For this bioassay, a 1.5 cm segment of ileum was removed from animals weighing 300 to 400 g and suspended in an organ bath containing 10 ml of Tyrodes solution with 10^-6 M atropine sulfate and 10^-6 M pyrilamine maleate. The bath was maintained at 37° C. and aerated with a mixture of 95% O2 and 5%CO2. The concentration of SRS-A in the experimental samples was determined by a comparison of the isotonic contraction responses elicited by the samples with those obtained with varying amounts of an SRS-A standard solution prepared from chopped guinea pig lung as disclosed in Hitchcock, M. J. Pharmacol. Exp. Ther. 207: 630-640 (1978) and quantituted by the procedures of Orange, R. R. and Austen, K. F. Adv. Immunol. 10: 105-144 (1969) against histamine (1 unit of SRS-A being that amount which gives a contractile response similar to that of […] of histamine). In the absence of drug, the ionophore A23187-induced SRS-A synthesis varied between 40 to 50 units of SRS-A per 10^6 cells. In the presence of increasing concentrations of test drug, there was a concentration-related decrease in SRS-A synthesis. [formula] at each concentration of the various test drugs was calculated. The concentration of test drug which inhibits the synthesis of SRS-A by 50% (IC50) was determined for each test drug from a plot of the mean percent inhibition versus the log of drug concentration. The difference of units of SRS-A in the test sample used in the fraction given above was obtained by subtracting from the units of SRS-A in the control from the actual measurement of the units of SRS-A in the sample.

[2] = molecular target: T1, Prostaglandin endoperoxide synthase (Ovis aries, UniProt P05979); conditions: statement on standard; cited from earlier work
T1 construct: sheep seminal vesicular gland microsomes (SSVM) as the enzyme source; from tissue; host or cells: sheep seminal vesicular gland microsomes, acetone powder
T1 sequence (P05979 25-600): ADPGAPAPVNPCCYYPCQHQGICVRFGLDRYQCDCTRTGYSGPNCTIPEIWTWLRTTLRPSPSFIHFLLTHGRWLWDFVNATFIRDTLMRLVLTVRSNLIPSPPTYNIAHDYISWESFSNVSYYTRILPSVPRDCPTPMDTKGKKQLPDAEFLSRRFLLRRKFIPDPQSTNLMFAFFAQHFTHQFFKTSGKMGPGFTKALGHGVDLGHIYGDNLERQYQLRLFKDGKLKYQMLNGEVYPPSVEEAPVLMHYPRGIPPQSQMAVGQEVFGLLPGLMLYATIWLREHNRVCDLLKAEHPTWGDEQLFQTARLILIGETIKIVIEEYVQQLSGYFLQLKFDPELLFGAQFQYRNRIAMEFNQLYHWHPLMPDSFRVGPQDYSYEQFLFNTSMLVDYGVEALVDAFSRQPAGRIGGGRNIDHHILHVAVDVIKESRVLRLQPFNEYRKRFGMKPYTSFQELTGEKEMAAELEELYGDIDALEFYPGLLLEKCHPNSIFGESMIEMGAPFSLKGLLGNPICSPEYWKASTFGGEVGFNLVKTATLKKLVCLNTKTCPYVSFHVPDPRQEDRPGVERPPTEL

[3] = molecular target: T1, Prostaglandin endoperoxide synthase; assay: Prostaglandin endoperoxide synthase (PES) assay, oxygen uptake with sheep seminal vesicular gland microsomes; type: biochemical; conditions: 33 μM arachidonic acid, pH 8.5
Description: The activity of PES was measured polarigraphically by following the disappearance of dissolved O2 from incubation mixtures containing arachidonic acid (AA) as substrate and sheep seminal vesicular gland microsomes (SSVM) as the enzyme source. Fifty mg of an acetone powder of SSVM were suspended, using a glass teflon homogenizer, in 1 ml of 0.1M tris. HCl (pH, 8.5) containing 0.67 mM phenol. This suspension of SSVM was incubated at room temperature in the presence of phenol to maximumly activate the PES and then the suspension was kept at 0°. Samples in a separate reaction vessel were each prepared by adding tris-phenol buffer (2.8 ml), 0.05 ml of the SSVM suspension, and a maximum of 0.12 ml of ethanol containing various concentrations of the test drug. […] Reaction vessels were then allowed to reach temperature equilibrium. An oxygen electrode is inserted into the vessel and then 24 μl of 4.1 mM AA are injected into the sealed vessel through a port on the side of the electrode. The final concentration of AA is 33 μM. Oxygen uptake is recorded and the initial rate of oxygen uptake used as a measure of PES activity. Each of the test compounds were tested initially at a high concentration (1 mM) and then, if required, dilutions are made. The mean percent inhibition was obtained for each concentration of the various test drugs by expressing as a percent the number obtained by dividing the difference of the oxygen uptake of the test sample by the oxygen uptake of the control. The concentration of test drug which inhibits the synthesis of PES by 50% (IC50) which is given in the following table was determined for each test drug from a plot of mean percent inhibition verses drug concentration. The difference of the oxygen uptake of test sample was obtained by subtracting from the oxygen uptake of the control, the oxygen uptake of the test sample.

[4] = molecular target: T2, Δ^12-lipoxygenase (Human Platelet) (Homo sapiens, UniProt P18054); conditions: statement on standard; cited from earlier work
T2 construct: using human platelets as the enzyme source; from tissue; host or cells: human platelets (washed, lysed by freezing and thawing; 100,000×g supernatant, 50% ammonium sulfate precipitate)
T2 sequence (P18054 1-663): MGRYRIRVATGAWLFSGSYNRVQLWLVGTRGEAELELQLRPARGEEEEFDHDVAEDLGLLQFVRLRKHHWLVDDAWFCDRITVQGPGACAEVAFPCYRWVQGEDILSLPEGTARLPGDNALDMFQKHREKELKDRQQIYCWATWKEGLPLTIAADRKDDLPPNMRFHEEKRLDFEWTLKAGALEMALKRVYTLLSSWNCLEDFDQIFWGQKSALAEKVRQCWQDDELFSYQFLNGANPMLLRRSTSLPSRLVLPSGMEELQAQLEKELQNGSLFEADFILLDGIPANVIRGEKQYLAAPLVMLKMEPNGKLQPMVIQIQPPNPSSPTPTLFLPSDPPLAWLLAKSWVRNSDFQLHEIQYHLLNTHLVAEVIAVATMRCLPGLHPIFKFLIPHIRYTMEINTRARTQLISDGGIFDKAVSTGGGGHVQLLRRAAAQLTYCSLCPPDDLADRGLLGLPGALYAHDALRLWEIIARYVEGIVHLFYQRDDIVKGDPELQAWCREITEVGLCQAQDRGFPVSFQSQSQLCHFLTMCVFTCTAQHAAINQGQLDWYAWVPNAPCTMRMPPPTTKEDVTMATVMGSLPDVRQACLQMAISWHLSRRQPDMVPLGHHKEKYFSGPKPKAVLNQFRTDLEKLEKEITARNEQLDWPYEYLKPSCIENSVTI

[5] = system: SRS-A synthesis (Rat Peritoneal Cells); conditions: statement on standard; cited from earlier work
[6] = molecular target: T2, Δ^12-lipoxygenase (Human Platelet); assay: Δ^12-lipoxygenase assay (conversion of 14C-arachidonic acid to 12-HETE, human platelet enzyme); type: biochemical; conditions: 3-4 μM arachidonic acid
Description: Δ^12 -lipoxygenase activity was measured by following the conversion of ^14 C-arachidonic acid (AA) to ^14 C-12-hydroxy-5,8,10,14-eicosatetraenoic acid (12-HETE) using human platelets as the enzyme source. Washed human platelets from approximately 2000 ml of blood were suspended in 50 ml of phosphate buffered saline (PBS) and then lysed by freezing and thawing (3 times). The platelet lysate was homogenized using a glass-teflon homogenizer and then particulate material was sedimented by centifugation at 100,000×g for 1 hr and the sediment was discarded. The supernatant was made 50% by weight saturated with respect to (NH4)2 SO4 by adding solid ammonium sulfate. The resultant suspension was allowed to stand at 0° overnight. The precipitate was collected by centrifugation and was dissolved in approximately 25 ml of PBS. This solution was the enzyme solution utilized to catalyze the conversion of AA to 12 HETE.
In order to test the compounds, separate incubation tubes for each of the compounds and for concentrations of these compounds were prepared in an ice bath. These tubes each contained 140 μl of PBS containing 1.78 mM glutathione, 10 μl of test drug in ethanol, 50 μl of platelet supernatant, and 50 μl of ^14 C-AA. […] Incubation tubes were prepared containing only buffer ethanol and ^14 c-AA were included as substrate controls. The final concentration of AA added as its ammonium salt in PBS, in each of the incubation tubes 3-4 μM. Sufficient enzyme solution prepared as above was added so that, under the conditions of the assay, approximately 80-90% by weight of the ^14 C-AA was converted to 12-HETE, as determined by prior controls. The tubes were incubated at 37° for 2 min, the reaction was stopped by the addition, while mixing on a mixer, of 2 ml of diethyl ether and 50 μl of 1M citric acid. The ether in the presence of citric acid extracted 12-HETE and AA from enzyme in the reaction medium in each of the samples. The ether extract was evaporated to dryness under nitrogen and then the residue was dissolved in 50 μl of chloroform:methanol (2:1 parts by volume). The dissolved residue containing 12-HETE and AA was applied, as rapidly as possible, to a glass fiber sheet impregnated with silica gel and then the chromatogram was developed using isooctane:methylethylketone:acetic acid (100:9:1 parts by volume) as solvent. Radioactive products and unconverted ^14 C-AA were located using a thin-layer chromatography scanner. The appropriate regions of the chromatogram were cut out, then the radioactivity quantitated using a liquid scintillation counter. The amount of ^14 C-AA converted to product is used as a measure of Δ^12 -lipoxygenase activity.
The mean percent inhibition was calculated by multiplying 100 times the following fraction: [formula] at each concentration of the various test drugs was calculated.

Row | Compound | IC50 [1] | IC50 [3] | IC50 [6] | inhibition at 10 µM [1] | inhibition of prostaglandin endoperoxide synthase (in words) [2] | inhibition of Δ^12-lipoxygenase (in words) [4] | inhibition of SRS-A synthesis (in words) [5]
1 | CCCCCC#CCC#CCC#CCC#CCCCC(=O)O [5,8,11,14-Eicosatetraynoic Acid, reference compound] | 3 to 4 µM | 5 µM | – | 100% | potent inhibitor | potent inhibitor | standard potent inhibitor of SRS-A synthesis
2 | CCCCCC#CCC#CCCCCCCCC(=O)O [9,12-Octadecadiynoic Acid, reference compound] | 3 µM | 0.1 to 1 µM | ≥ 100 µM | 87 ± 1% | potent standard inhibitor | not being an inhibitor of Δ^12 lipoxygenase | potent standard inhibitor of SRS-A synthesis
3 | CCCCC/C=C\C/C=C\CC#CCC#CCCCC(=O)O [Compound 3, (Z,Z)-11,14-eicosadien-5,8-diynoic acid] | – | 10 to 100 µM | 10 to 100 µM | 81 ± 6% | – | – | –
4 | CCCCC/C=C\C/C=C\CC#CCC#CCCCC(=O)OC [Compound 4, (Z,Z)-11,14-eicosadien-5,8-diynoic acid methyl ester] | < 10 µM | – | 10 to 100 µM | 85 ± 8% | – | – | –

Continued, in another order:

Row | IC50 [1] | IC50 [3] | IC50 [6] | Compound | inhibition at 10 µM [1] | inhibition of prostaglandin endoperoxide synthase (in words) [2] | inhibition of Δ^12-lipoxygenase (in words) [4] | inhibition of SRS-A synthesis (in words) [5]
5 | 1 to 3 µM | > 100 µM | 13 µM | CCCCCCCC/C=C\CC#CCC#CCCCC(=O)O [Compound 5, (Z,Z)-11-eicosen-5,8-diynoic acid] | 100% | – | – | –
6 | 1 to 3 µM | > 100 µM | ~100 µM | CCCCC/C=C\CCCCC#CCC#CCCCC(=O)O [Compound 6, (Z)-14-eicosen-5,8-diynoic acid] | 100% | – | – | –
7 | < 10 µM | – | ~100 µM | CCCCC/C=C\CCCCC#CCC#CCCCC1=NC(C)(C)CO1 [Compound 7, 2[(Z)-13-nonadecen-4,7-diynyl]-4,5-dihydro-4,4-dimethyloxazole] | 86 ± 8% | – | – | –
8 | < 10 µM | – | > 100 µM | CCCCC/C=C\CCCCC#CCC#CCCC(F)C1=NC(C)(C)CO1 (stereo not drawn) [Compound 8, 2-(1-fluorononadec-13(Z)-en-4,7-diynyl)-4,5-dihydro-4,4-dimethyloxazole] | 88 ± 6% | – | – | –
